Measured values published in ChEMBL document CHEMBL4411307, “N,N'-diaryl-bishydrazones in a biphenyl platform: Broad spectrum antifungal agents” (Eur J Med Chem, 2019).
Converted amounts (≈) assume the structure as drawn. The source made the active and inactive calls. The calls are words filed in the database; no cut-off is given here.

Experiments:
Listeria monocytogenes = assay: Antibacterial activity against Listeria monocytogenes; assay type: functional, organism-based
Candida parapsilosis = assay: Antifungal activity against Candida parapsilosis ATCC 22019 measured after 48 hrs by CLSI M27-A3 protocol based method; assay type: functional; conditions: Lodderomyces parapsilosis, ATCC 22019, 48 h
Candida albicans [1] = assay: Antifungal activity against fluconazole/ITC-resistant Candida albicans ATCC 64124 measured after 48 hrs by CLSI M27-A3 protocol based method; assay type: functional; conditions: ATCC 64124, 48 h
Aspergillus flavus = assay: Antifungal activity against Aspergillus flavus ATCC MYA-3631 measured after 48 hrs by CLSI M38-A2 protocol based method; assay type: functional; conditions: ATCC MYA-3631, 48 h
Nakaseomyces glabratus = assay: Antifungal activity against Candida glabrata ATCC 2001 measured after 48 hrs by CLSI M27-A3 protocol based method; assay type: functional; conditions: CBS 138, 48 h
Candida albicans [2] = assay: Antifungal activity against fluconazole/ITC-resistant Candida albicans ATCC MYA-1003 measured after 48 hrs by CLSI M27-A3 protocol based method; assay type: functional; conditions: ATCC MYA-1003, 48 h
Aspergillus terreus = assay: Antifungal activity against Aspergillus terreus ATCC MYA-3633 measured after 48 hrs by CLSI M38-A2 protocol based method; assay type: functional; conditions: ATCC MYA-3633, 48 h
Enterococcus = assay: Antibacterial activity against vancomycin-resistant Enterococcus; assay type: functional, organism-based
Candida albicans [3] = assay: Antifungal activity against fluconazole/ITC-resistant Candida albicans ATCC 10231 measured after 48 hrs by CLSI M27-A3 protocol based method; assay type: functional; conditions: ATCC 10231, 48 h
Pichia kudriavzevii = assay: Antifungal activity against Candida krusei ATCC 6258 measured after 48 hrs by CLSI M27-A3 protocol based method; assay type: functional; conditions: ATCC 6258, 48 h
Candida albicans [4] = assay: Antifungal activity against fluconazole/ITC-susceptible Candida albicans ATCC MYA-2310 measured after 48 hrs by CLSI M27-A3 protocol based method; assay type: functional; conditions: ATCC MYA-2310, 48 h
Candida albicans [5] = assay: Antifungal activity against fluconazole/ITC-resistant Candida albicans ATCC 90819 measured after 48 hrs by CLSI M27-A3 protocol based method; assay type: functional; conditions: ATCC 90819, 48 h
Staphylococcus aureus = assay: Antibacterial activity against methicillin-resistant Staphylococcus aureus; assay type: functional, organism-based
Candida albicans [6] = assay: Antifungal activity against fluconazole/ITC-susceptible Candida albicans ATCC MYA-2876 measured after 48 hrs by CLSI M27-A3 protocol based method; assay type: functional; conditions: ATCC MYA-2876, 48 h
Aspergillus nidulans = assay: Antifungal activity against Aspergillus nidulans ATCC 38163 measured after 48 hrs by CLSI M38-A2 protocol based method; assay type: functional; conditions: ATCC 38163, 48 h
Candida albicans [7] = assay: Antifungal activity against fluconazole/ITC-resistant Candida albicans ATCC MYA-1237 measured after 48 hrs by CLSI M27-A3 protocol based method; assay type: functional; conditions: ATCC MYA-1237, 48 h
[8] = Selectivity index, ratio of CC50 for human A549 cells to MIC for Aspergillus flavus ATCC MYA-3631; assay type: toxicity; conditions: read-out: Selectivity Index
[9] = Selectivity index, ratio of CC50 for human A549 cells to MIC for fluconazole/ITC-susceptible Candida albicans ATCC MYA-2310; assay type: toxicity; conditions: read-out: Selectivity Index
[10] = Selectivity index, ratio of CC50 for human A549 cells to MIC for Aspergillus terreus ATCC MYA-3633; assay type: toxicity; conditions: read-out: Selectivity Index
[11] = Selectivity index, ratio of CC50 for human A549 cells to MIC for fluconazole/ITC-resistant Candida albicans ATCC 64124; assay type: toxicity; conditions: read-out: Selectivity Index
[12] = Selectivity index, ratio of CC50 for human A549 cells to MIC for Candida krusei ATCC 6258; assay type: toxicity; conditions: read-out: Selectivity Index
A549 = assay: Cytotoxicity against human A549 cells after 24 hrs by resazurin based assay; assay type: cell-based; conditions: a549, 24 h
[13] = Selectivity index, ratio of CC50 for human A549 cells to MIC for Aspergillus nidulans ATCC 38163; assay type: toxicity; conditions: read-out: Selectivity Index
[14] = Selectivity index, ratio of CC50 for human A549 cells to MIC for fluconazole/ITC-resistant Candida albicans ATCC MYA-1237; assay type: toxicity; conditions: read-out: Selectivity Index
[15] = Selectivity index, ratio of CC50 for human A549 cells to MIC for Candida parapsilosis ATCC 22019; assay type: toxicity; conditions: read-out: Selectivity Index
[16] = Selectivity index, ratio of CC50 for human A549 cells to MIC for fluconazole/ITC-susceptible Candida albicans ATCC MYA-2876; assay type: toxicity; conditions: read-out: Selectivity Index
[17] = Selectivity index, ratio of CC50 for human A549 cells to MIC for fluconazole/ITC-resistant Candida albicans ATCC MYA-1003; assay type: toxicity; conditions: read-out: Selectivity Index
[18] = Selectivity index, ratio of CC50 for human A549 cells to MIC for Candida glabrata ATCC 2001; assay type: toxicity; conditions: read-out: Selectivity Index
BEAS-2B = assay: Cytotoxicity against human BEAS2B cells after 24 hrs by resazurin based assay; assay type: cell-based
[19] = Selectivity index, ratio of CC50 for human A549 cells to MIC for fluconazole/ITC-resistant Candida albicans ATCC 90819; assay type: toxicity; conditions: read-out: Selectivity Index
[20] = Selectivity index, ratio of CC50 for human A549 cells to MIC for fluconazole/ITC-resistant Candida albicans ATCC 10231; assay type: toxicity; conditions: read-out: Selectivity Index

Row | Compound | Activity (Listeria monocytogenes) | MIC (Candida parapsilosis) | MIC (Candida albicans [1]) | MIC (Aspergillus flavus) | MIC (Nakaseomyces glabratus) | MIC (Candida albicans [2]) | MIC (Aspergillus terreus) | Activity (Enterococcus) | MIC (Candida albicans [3]) | MIC (Pichia kudriavzevii) | MIC (Candida albicans [4]) | MIC (Candida albicans [5]) | Activity (Staphylococcus aureus) | MIC (Candida albicans [6]) | MIC (Aspergillus nidulans) | MIC (Candida albicans [7]) | other results
1 | N#Cc1ccc(N/N=C/c2ccc(-c3ccc(/C=N/Nc4ccc(C#N)cc4)cc3)cc2)cc1 | inactive | > 31.3 µg/mL | > 31.3 µg/mL | > 31.3 µg/mL | > 31.3 µg/mL | 31.3 µg/mL (≈ 71.1 µM) | 31.3 µg/mL (≈ 71.1 µM) | inactive | > 31.3 µg/mL | > 31.3 µg/mL | > 31.3 µg/mL | > 31.3 µg/mL | inactive | > 31.3 µg/mL | > 31.3 µg/mL | > 31.3 µg/mL | –
2 | Fc1ccccc1N/N=C/c1ccc(-c2cccc(/C=N/Nc3ccccc3F)c2)cc1 | inactive | 15.6 µg/mL (≈ 36.6 µM) | 7.8 µg/mL (≈ 18.3 µM) | 3.9 µg/mL (≈ 9.14 µM) | > 31.3 µg/mL | 7.8 µg/mL (≈ 18.3 µM) | > 31.3 µg/mL | inactive | 7.8 µg/mL (≈ 18.3 µM) | 1.95 µg/mL (≈ 4.57 µM) | 31.3 µg/mL (≈ 73.4 µM) | 15.6 µg/mL (≈ 36.6 µM) | inactive | > 31.3 µg/mL | 7.8 µg/mL (≈ 18.3 µM) | > 31.3 µg/mL | selectivity ratio [8]: > 4.2; selectivity ratio [9]: 0.5; selectivity ratio [10]: 0.5; selectivity ratio [11]: 2.1; selectivity ratio [12]: 8.4; CC50 (A549): 16.4 µg/mL (≈ 38.5 µM); selectivity ratio [13]: 2.1; selectivity ratio [14]: 0.5; selectivity ratio [15]: 1.1; selectivity ratio [16]: 0.5; selectivity ratio [17]: 2.1; selectivity ratio [18]: 0.5; CC50 (BEAS-2B): > 31 µg/mL; selectivity ratio [19]: 1.1; selectivity ratio [20]: 2.1
3 | Fc1ccc(N/N=C/c2ccc(-c3ccc(/C=N/Nc4ccc(F)cc4F)cc3)cc2)c(F)c1 | inactive | > 31.3 µg/mL | > 31.3 µg/mL | > 31.3 µg/mL | > 31.3 µg/mL | > 31.3 µg/mL | > 31.3 µg/mL | inactive | 7.8 µg/mL (≈ 16.9 µM) | > 31.3 µg/mL | > 31.3 µg/mL | 31.3 µg/mL (≈ 67.7 µM) | inactive | > 31.3 µg/mL | > 31.3 µg/mL | > 31.3 µg/mL | –
